Read-outs that look alike come from different tables or passages of the source.
Assays:
[1] = pH 5
Description: (§1) Solubility in aqueous media. A calibration curve is constructed via HPLC analysis of a series of solutions of the compound of interest at known concentrations in a suitable solvent. A known amount (excess) of solid compound is placed in a 20-mL vial to which a 5 mL aliquot of 1 mM acetate buffer at pH 5 is then added. The contents are stirred at 25°C for 24 hours. After a 4-hour decantation period, 1 mL of the supernatant is filtered through a PTFE 0.45 µm filter, diluted with 2 v/v of acetonitrile and analyzed by HPLC. The entire procedure is repeated twice with the same sample, at 24-hour intervals, to verify the invariance of the result.

[2] = Solubility in aqueous media (excess solid stirred in buffer, HPLC of filtered supernatant); settings: 1 mM acetate buffer at pH 5, 25°C, 24 hours stirring
Description: as §1

[3] = Stability to oxidation: reaction with DPPH radical, absorbance at 520 nm; format: physicochemical; settings: 20 nmoles of DPPH in methanol, absorbance at 520 nm after 40 min (Fig. 5)
Description: At time zero, 20 nmoles of DPPH and the specified amount of resveratrol or of its derivative were mixed in methanol. Absorbance was measured after 40 min.
The susceptibility to oxidation can be assessed by studying c) the reaction with the 1,1-diphenyl-2-picrylhydrazyl (DPPH) radical.
DPPH is a stable free radical with an absorbance maximum at 520 nm (purple). Upon reaction with polyphenols it is converted to DPPHH (yellow) and this change of colour is an indication of the extent of the reaction which has taken place. The assays were conducted using 96-well plates following Fukumoto and Mazza (2000), measuring absorbance with a Tecan Infinite 200 plate reader.

Solubility in water [1] | SMILES | reaction with DPPH [3] | other results
below detection limit | O=C(NC(Cc1ccccc1)C(=O)O)Oc1ccc(C=Cc2cc(OC(=O)NC(Cc3ccccc3)C(=O)O)cc(OC(=O)NC(Cc3ccccc3)C(=O)O)c2)cc1 (centres unmarked) [Resv(HOPhe-C)3, 3,4',5-tri-[N-(phenylalanyl)-carbamoyl]-resveratrol] |  | 
 | CNC(=O)Oc1ccc(C=Cc2cc(OC(=O)NC)cc(OC(=O)NC)c2)cc1 [Resv(Me-C)3, 3,4',5-tri-[N-methyl-carbamoyl]-resveratrol] |  | Solubility in water [2]: below detection limit
below detection limit | CCCCCCCCC=CCCCCCCCCNC(=O)Oc1ccc(C=Cc2cc(OC(=O)NCCCCCCCCC=CCCCCCCCC)cc(OC(=O)NCCCCCCCCC=CCCCCCCCC)c2)cc1 [Resv(Oleyl-C)3, 3,4',5-tri-[N-(octadec-9-enyl)-carbamoyl]-resveratrol] |  | 
 | COCCOCCOCCNC(=O)Oc1ccc(C=Cc2cc(OC(=O)NCCOCCOCCOC)cc(OC(=O)NCCOCCOCCOC)c2)cc1 [Resv(TGME-C)3, 3,4',5-tri-[N-methoxytri-(ethyleneglycol)-carbamoyl] resveratrol] | does not react at all with DPPH | 
 | Oc1ccc(C=Cc2cc(O)cc(O)c2)cc1 [resveratrol] | stoichiometric oxidation | 

From patent EP2774915A1, “New derivatives of resveratrol” (Mattarei, Andrea, priority 2013, dated 2014)
